Read-outs that look alike come from different tables or passages of the source.
Legend:
[1] = system: NIH 3T3 mouse fibroblast cells; assay: Mitogen-induced cell proliferation; format: cell-based; details: for inhibition at 10 µM: NIH3T3, read-out: Mitogen-induced cell proliferation % Inhibition; for IC50: NIH3T3, read-out: Mitogen-induced cell proliferation IC50
Text: Other cell lines, e.g., cancer cells, endothelial cells and fibroblasts, as well as many others, may be used in the cell proliferation assay. Selection of a particular cell line will depend in part on the desired application, and is well within the capabilities of an ordinarily skilled artisan.

[2] = target: Gardos channel of erythrocytes (Homo sapiens, UniProt O15554); assay: cell-based; details: for inhibition at 10 µM: read-out: Gardos Channel % Inhibition
[3] = erythrocytes, read-out: Gardos Channel IC50

Chain of Gardos channel of erythrocytes (O15554 whole entry): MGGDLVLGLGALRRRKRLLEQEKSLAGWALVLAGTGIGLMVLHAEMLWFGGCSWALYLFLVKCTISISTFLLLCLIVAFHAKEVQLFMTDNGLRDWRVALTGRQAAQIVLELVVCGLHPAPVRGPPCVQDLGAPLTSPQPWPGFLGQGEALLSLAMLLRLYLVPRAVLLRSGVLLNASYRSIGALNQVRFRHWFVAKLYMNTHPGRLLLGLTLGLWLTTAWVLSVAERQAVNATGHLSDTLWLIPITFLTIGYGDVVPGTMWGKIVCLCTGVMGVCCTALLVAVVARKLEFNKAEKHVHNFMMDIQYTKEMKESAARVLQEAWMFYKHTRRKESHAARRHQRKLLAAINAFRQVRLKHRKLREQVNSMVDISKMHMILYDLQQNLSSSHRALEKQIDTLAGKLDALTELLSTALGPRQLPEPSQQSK

IC50 [2]	Structure (SMILES)	inhibition at 10 µM [1]	IC50 [1]	IC50 [2, 3]	inhibition at 10 µM [2]
–	NC(=O)C(c1ccccc1)(c1ccccc1)C1CCCCC1 [Compound 90, Cyclohexyl-diphenylacetamide]	86%	3 µM	0.072 µM	98.3%
0.061 µM	OC(c1ccccc1)(c1ccccc1)c1ccc(Cl)cc1 [Compound 43]	99%	0.8 µM	–	99%
2.37 µM	OC(c1ccccc1)(c1ccccc1)c1cccc2ccccc12 [Compound 61]	99%	1.6 µM	–	85%
0.048 µM	N#CC(c1ccccc1)(c1ccccc1)c1ccccc1Cl [Compound 14, (2-chlorophenyl)-diphenylacetonitrile]	95.8%	2.2 µM	–	98.8%
0.615 µM	Oc1ccccc1C(O)(c1ccccc1)c1ccccc1 [Compound 42]	99%	3.3 µM	–	99%
–	CCOC(=O)CNC(c1ccccc1)(c1ccccc1)c1ccccc1 [Compound 57]	21%	–	1.51 µM	89%
0.236 µM	OC(c1ccccc1)(c1ccccc1)c1ccc(C(F)(F)F)cc1 [Compound 68]	98%	3.1 µM	–	97.5%
–	O=C(O)CNC(c1ccccc1)(c1ccccc1)c1ccccc1 [Compound 25]	70%	–	–	34.4%
–	C1=CC(=P(c2ccccc2)(c2ccccc2)c2ccccc2)C=C1 [Compound 10]	25.5%	4.8 µM	0.957 µM	89.7%
–	O=C1CC[C@@H](COC(c2ccccc2)(c2ccccc2)c2ccccc2)O1 [Compound 24]	29%	–	0.135 µM	97.9%
0.252 µM	BrC(c1ccccc1)(c1ccccc1)c1ccccc1 [Compound 12]	72.8%	1.7 µM	–	99%
–	CCOC(=O)C(C(=O)OCC)C(c1ccccc1)(c1ccccc1)c1ccccc1F [Compound 55]	5%	–	0.058 µM	98%
–	N#CCc1ccc([Si](c2ccccc2)(c2ccccc2)c2ccccc2)cc1 [Compound 71]	97%	1.1 µM	–	0.4%
–	c1ccc(C(c2ccccc2)(c2ccccc2)[n+]2ccccc2)cc1 [Compound 7]	6.6%	–	0.41 µM	98.2%
0.43 µM	OCC(c1ccccc1)(c1ccccc1)c1ccccc1 [Compound 35]	38%	–	–	95.8%
0.795 µM	OC(c1ccccc1)(c1ccccc1)c1ccccc1F [Compound 20]	39%	–	–	98.1%
–	COc1ccc(C(c2ccccc2)c2ccccc2Cl)cc1 (stereo not drawn) [Compound 83]	80%	6.4 µM	0.918 µM	96.7%
–	CON(C)C(=O)CC(c1ccccc1)(c1ccccc1)c1ccccc1 [Compound 56]	99%	3.2 µM	0.275 µM	91%
–	O=C(O)CCC(c1ccccc1)(c1ccccc1)c1ccccc1 [Compound 74]	70%	–	1.4 µM	97.5%

IC50 [2]	Structure (SMILES)	inhibition at 10 µM [1]	IC50 [1]	IC50 [2, 3]	inhibition at 10 µM [2]
–	NCCC(c1ccc(Cl)cc1)(c1ccc(Cl)cc1)c1ccc(Cl)cc1 [Compound 41]	99%	1.4 µM	2.07 µM	97%
–	CCC(c1ccccc1)(c1ccccc1)c1ccc(O)cc1 [Compound 67]	98%	1.4 µM	0.43 µM	96.1%
–	N#CCC(c1ccc(Cl)cc1)(c1ccc(Cl)cc1)c1ccc(Cl)cc1 [Compound 26]	99%	1.3 µM	–	10%
–	Oc1ccc(C(c2ccccc2)c2ccccc2Cl)cc1 (stereo not drawn) [Compound 85]	91%	7 µM	0.739 µM	98%
0.098 µM	COC(=O)c1ccc(C(O)(c2ccccc2)c2ccccc2)cc1 [Compound 62]	31%	–	–	98%
–	N#CCCC(c1ccccc1)(c1ccccc1)c1ccccc1 [Compound 64, 4,4,4-triphenylbutronitrile]	63%	5.8 µM	0.088 µM	100%
1.29 µM	OC(C#Cc1ccccc1)(c1ccccc1)c1ccccc1 [Compound 48]	98%	0.4 µM	–	100%
–	O=C(O)C(c1ccccc1)(c1ccccc1)c1ccccc1Cl [Compound 80]	62%	–	0.206 µM	97%
–	O=C(O)CC(c1ccc(Cl)cc1)(c1ccc(Cl)cc1)c1ccc(Cl)cc1 [Compound 39]	99%	3.3 µM	1.68 µM	97%
–	N#CC(c1ccccc1)(c1ccccc1)c1ccccc1 [Compound 13]	87%	0.92 µM	0.133 µM	72.4%
–	CC(=O)C(c1ccccc1)(c1ccccc1)c1ccccc1 [Compound 37]	31%	–	0.057 µM	100%
–	Cc1ccc(C(c2cc(Cl)ccc2N)c2ccccc2Cl)cc1 (stereo not drawn) [Compound 86]	99%	2.4 µM	0.237 to 0.455 µM	93.9%
–	NCCC(c1ccccc1)(c1ccccc1)c1ccccc1 [Compound 29]	99%	3.1 µM	0.649 µM	100%
–	O=C(CBr)C(c1ccccc1)(c1ccccc1)c1ccccc1 [Compound 69]	99%	–	0.025 µM	100%
0.304 µM	COc1ccc(C(O)(c2ccccc2)c2ccccc2)cc1 [Compound 60]	31%	–	–	98%
1.07 µM	OCCC[CH2][Ge]([c]1ccccc1)([c]1ccccc1)[c]1ccccc1 [Compound 72]	–	–	–	–
0.755 µM	OC(c1ccccc1)(c1ccccc1)c1ccccc1 [Compound 1]	–	–	–	97%
–	c1ccc([Si](c2ccccc2)(c2ccccc2)c2cccs2)cc1 [Compound 76]	84%	–	–	–
–	CON(C)C(=O)CC(c1ccc(Cl)cc1)(c1ccc(Cl)cc1)c1ccc(Cl)cc1 [Compound 40]	99%	1 to 1.2 µM	–	–

Structure (SMILES)	IC50 [2]	inhibition at 10 µM [1]	IC50 [1]	IC50 [2, 3]	inhibition at 10 µM [2]
NC(c1ccccc1)(c1ccccc1)c1ccccc1 [Compound 5]	1.65 µM	66%	1.28 µM	–	86%
O=C(O)CC(c1ccccc1)(c1ccccc1)c1ccccc1 [Compound 9]	21.8 µM	32.7%	–	–	77.2%
CCOC(=O)C(C(=O)OCC)C(c1ccccc1)(c1ccccc1)c1ccccc1 [Compound 31]	0.445 µM	89%	2.6 µM	–	99%
O=CCC(c1ccc(Cl)cc1)(c1ccc(Cl)cc1)c1ccc(Cl)cc1 [Compound 65]	0.435 µM	99%	1.6 µM	–	98%

— patent US7531573B2 (priority 1994, dated 2009)
